Assay results from article PMC8222254, “Self-assembly of an anion receptor with metal-dependent kinase inhibition and potent in vitro anti-cancer properties” (Nature Communications, 2021).
Values joined by “and” are separate entries in the source; they are usually repeats but may differ in a detail not shown here. Equal entries are not always repeated.

Experiments:
Assay in all cases: Kinase inhibition screen, cell-free 33P ATP assay at 10 μM
Type in all cases: biochemical
[1] = biological target: 140 purified human kinases (Homo sapiens, UniProt P06213); settings: IR
Chain of 140 purified human kinases (Homo sapiens, UniProt P06213) (P06213 28-1382): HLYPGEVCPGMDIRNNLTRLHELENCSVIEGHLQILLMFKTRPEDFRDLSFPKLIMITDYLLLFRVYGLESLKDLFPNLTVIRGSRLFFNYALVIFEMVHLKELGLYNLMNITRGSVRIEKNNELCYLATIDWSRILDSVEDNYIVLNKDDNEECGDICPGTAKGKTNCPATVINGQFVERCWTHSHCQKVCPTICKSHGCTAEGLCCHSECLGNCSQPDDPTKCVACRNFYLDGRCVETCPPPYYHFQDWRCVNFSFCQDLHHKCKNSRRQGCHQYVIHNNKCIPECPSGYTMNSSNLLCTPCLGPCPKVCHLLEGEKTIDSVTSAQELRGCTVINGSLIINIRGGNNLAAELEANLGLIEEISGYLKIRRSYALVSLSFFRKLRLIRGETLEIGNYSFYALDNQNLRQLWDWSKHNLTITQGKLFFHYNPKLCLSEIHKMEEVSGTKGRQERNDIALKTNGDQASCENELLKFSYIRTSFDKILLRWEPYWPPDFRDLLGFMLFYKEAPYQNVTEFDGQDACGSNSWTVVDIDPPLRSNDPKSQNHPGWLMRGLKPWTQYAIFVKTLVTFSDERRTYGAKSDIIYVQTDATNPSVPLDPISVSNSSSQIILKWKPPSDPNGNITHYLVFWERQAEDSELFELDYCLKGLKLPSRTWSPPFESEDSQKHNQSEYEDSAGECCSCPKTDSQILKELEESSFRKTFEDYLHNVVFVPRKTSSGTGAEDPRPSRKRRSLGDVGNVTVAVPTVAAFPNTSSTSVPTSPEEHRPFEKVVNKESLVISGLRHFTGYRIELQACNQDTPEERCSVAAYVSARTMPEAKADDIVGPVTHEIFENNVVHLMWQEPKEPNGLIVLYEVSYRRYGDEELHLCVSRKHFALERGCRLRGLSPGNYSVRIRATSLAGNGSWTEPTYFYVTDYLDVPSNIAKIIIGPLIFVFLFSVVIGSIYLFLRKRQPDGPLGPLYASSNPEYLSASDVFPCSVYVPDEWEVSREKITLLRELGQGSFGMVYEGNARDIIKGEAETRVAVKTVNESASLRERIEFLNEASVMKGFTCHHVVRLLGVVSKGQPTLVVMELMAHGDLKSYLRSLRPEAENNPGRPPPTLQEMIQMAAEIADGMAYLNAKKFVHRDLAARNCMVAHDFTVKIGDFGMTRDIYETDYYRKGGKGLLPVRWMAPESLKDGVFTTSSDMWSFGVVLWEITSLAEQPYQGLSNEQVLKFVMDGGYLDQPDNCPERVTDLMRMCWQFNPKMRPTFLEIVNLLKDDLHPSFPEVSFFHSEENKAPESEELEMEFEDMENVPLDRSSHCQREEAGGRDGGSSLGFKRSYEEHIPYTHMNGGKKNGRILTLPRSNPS
Outline: (§1)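 Each complex tested in duplicate at 10 μM; cell-free radiometric assay using ^33P ATP on purified enzymes. Hits mapped by HGNC symbol onto the kinome tree.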

[2] = biological target: 140 purified human kinases (Homo sapiens, UniProt P29317)
Chain of 140 purified human kinases (Homo sapiens, UniProt P29317) (P29317 24-976): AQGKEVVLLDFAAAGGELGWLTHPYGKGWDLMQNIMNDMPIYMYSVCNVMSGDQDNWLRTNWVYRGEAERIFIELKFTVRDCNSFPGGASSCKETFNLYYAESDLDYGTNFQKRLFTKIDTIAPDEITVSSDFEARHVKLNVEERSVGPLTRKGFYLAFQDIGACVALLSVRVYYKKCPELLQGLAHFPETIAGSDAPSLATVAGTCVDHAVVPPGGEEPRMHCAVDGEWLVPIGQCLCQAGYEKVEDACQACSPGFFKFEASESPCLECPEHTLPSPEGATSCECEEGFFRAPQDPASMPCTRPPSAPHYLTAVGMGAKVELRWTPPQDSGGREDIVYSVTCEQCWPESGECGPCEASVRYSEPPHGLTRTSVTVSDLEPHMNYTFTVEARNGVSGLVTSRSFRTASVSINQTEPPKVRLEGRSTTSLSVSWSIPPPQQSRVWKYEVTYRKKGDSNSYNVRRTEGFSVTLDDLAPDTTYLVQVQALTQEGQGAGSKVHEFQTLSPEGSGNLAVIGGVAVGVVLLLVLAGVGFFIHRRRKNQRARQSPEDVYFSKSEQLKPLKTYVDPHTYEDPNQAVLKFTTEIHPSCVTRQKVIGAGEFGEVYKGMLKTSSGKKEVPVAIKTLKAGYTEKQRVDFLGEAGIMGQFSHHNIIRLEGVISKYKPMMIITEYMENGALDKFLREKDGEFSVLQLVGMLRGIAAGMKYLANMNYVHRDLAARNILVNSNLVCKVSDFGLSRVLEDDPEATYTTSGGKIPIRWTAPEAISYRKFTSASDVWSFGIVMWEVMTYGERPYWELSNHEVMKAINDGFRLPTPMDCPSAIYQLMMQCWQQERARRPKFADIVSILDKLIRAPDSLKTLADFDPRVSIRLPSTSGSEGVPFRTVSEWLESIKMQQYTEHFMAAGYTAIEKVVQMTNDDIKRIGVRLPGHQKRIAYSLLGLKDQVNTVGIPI
Outline: as §1

[3] = biological target: T1, 140 purified human kinases (Homo sapiens, UniProt P43403); settings: for % Activity inhibition Mean / % Activity inhibition Run 1 / % Activity inhibition Run 2 / % Activity remaining Run 1 / % Activity remaining Run 2: 10 µM
T1 sequence (P43403 1-619): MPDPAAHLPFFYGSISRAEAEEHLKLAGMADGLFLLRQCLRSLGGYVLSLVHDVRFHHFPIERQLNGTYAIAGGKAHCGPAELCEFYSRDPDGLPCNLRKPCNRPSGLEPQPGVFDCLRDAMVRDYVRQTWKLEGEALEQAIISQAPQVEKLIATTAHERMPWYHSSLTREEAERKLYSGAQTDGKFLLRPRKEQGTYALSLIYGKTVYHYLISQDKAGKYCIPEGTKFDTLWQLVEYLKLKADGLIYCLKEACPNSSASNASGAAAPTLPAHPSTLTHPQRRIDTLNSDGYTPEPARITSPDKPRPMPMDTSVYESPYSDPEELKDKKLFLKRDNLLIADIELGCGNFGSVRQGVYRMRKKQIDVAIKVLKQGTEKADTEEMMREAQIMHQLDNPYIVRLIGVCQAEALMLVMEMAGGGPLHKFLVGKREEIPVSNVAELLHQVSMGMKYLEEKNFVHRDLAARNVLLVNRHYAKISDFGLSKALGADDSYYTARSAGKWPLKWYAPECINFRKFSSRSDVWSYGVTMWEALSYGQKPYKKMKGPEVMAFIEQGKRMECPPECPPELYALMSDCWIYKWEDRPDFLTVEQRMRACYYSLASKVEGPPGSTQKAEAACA
Outline: as §1

[4] = biological target: 140 purified human kinases (Homo sapiens, UniProt P50750)
Chain of 140 purified human kinases (Homo sapiens, UniProt P50750) (P50750 whole entry): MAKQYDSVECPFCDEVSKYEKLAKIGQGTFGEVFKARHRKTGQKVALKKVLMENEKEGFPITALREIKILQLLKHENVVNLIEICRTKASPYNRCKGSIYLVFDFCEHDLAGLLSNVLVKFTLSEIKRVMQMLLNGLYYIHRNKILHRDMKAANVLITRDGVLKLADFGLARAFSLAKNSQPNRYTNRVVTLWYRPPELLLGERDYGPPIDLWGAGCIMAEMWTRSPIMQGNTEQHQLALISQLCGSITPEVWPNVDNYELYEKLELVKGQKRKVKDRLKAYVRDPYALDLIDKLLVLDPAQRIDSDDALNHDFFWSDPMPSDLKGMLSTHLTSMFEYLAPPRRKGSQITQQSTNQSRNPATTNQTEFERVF
Outline: as §1

[5] = biological target: T2, 140 purified human kinases (Homo sapiens, UniProt Q15831)
T2 sequence (Q15831 1-433): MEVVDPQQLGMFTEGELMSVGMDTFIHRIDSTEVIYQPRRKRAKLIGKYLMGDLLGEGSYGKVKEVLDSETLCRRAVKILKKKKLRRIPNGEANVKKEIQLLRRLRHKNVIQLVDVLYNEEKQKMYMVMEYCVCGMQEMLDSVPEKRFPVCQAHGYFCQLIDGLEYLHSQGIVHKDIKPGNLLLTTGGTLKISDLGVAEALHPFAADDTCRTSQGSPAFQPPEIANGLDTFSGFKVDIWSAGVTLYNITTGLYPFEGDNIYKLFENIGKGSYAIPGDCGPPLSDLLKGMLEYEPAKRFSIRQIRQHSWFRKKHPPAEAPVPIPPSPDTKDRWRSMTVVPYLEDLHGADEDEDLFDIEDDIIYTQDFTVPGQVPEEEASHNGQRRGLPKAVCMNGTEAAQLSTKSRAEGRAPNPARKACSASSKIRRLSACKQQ
Outline: as §1

[6] = biological target: T3, 140 purified human kinases (Homo sapiens, UniProt Q8TD08)
T3 sequence (Q8TD08 1-544): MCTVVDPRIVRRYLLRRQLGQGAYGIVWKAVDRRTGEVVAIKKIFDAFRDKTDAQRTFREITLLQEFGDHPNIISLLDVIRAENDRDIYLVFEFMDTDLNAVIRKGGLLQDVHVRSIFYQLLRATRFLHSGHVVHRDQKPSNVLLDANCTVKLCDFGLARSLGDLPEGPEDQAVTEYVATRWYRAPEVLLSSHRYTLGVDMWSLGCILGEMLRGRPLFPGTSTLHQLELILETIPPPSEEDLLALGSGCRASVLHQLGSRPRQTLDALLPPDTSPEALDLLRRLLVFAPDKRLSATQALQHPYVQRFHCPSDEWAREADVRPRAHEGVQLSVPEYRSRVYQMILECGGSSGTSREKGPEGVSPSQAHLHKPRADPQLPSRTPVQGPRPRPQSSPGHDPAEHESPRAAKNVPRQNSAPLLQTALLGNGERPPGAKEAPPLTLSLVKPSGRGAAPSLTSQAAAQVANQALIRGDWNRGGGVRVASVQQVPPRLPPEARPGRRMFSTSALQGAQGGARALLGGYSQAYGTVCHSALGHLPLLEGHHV
Outline: as §1

CC(=O)[O-].CC(=O)[O-].CC(=O)[O-].CC(=O)[O-].CC(=O)[O-].CC(=O)[O-].[Zn+2].[Zn+2].[Zn+2].c1ccc(-c2csc(NCCN(CCNc3nc(-c4ccccn4)cs3)CCNc3nc(-c4ccccn4)cs3)n2)nc1.c1ccc(-c2csc(NCCN(CCNc3nc(-c4ccccn4)cs3)CCNc3nc(-c4ccccn4)cs3)n2)nc1 [[L2Zn3]6+]
% Inhibition, Mean [1]: 12%
mean % activity [1]: 88%
% activity ([1]; duplicate runs): 80% and 95%
% Inhibition, Mean ([2]; EPH-A2): 19%
% Inhibition, Run 1 / Run 2 ([2]; EPH-A2): 21% and 17%
mean % activity ([2]; EPH-A2): 81%
% activity ([2]; EPH-A2, duplicate runs): 79% and 83%
% Inhibition, Mean ([3]; ZAP70): 89%
% Inhibition, Run 1 / Run 2 ([3]; ZAP70): 91% and 88%
mean % activity ([3]; ZAP70): 11%
% Activity inhibition Mean ([3]; ZAP70): 89.0%
% Activity inhibition Run 1 ([3]; ZAP70): 90%
% Activity inhibition Run 2 ([3]; ZAP70): 88%
% Activity remaining Run 1 ([3]; ZAP70): 10%
% Activity remaining Run 2 ([3]; ZAP70): 12%
% activity ([3]; ZAP70, duplicate runs): 9.5% and 12%
% Activation, Mean value ([4]; CDK9-Cyclin T1): 6%
% Inhibition, Mean ([4]; CDK9-Cyclin T1): -6%
mean % activity ([4]; CDK9-Cyclin T1): 106%
% activity ([4]; CDK9-Cyclin T1, duplicate runs): 96% and 117%
% Activation, Mean value ([5]; LKB1): 9%
% Inhibition, Mean ([5]; LKB1): -9%
mean % activity ([5]; LKB1): 109%
% activity ([5]; LKB1, duplicate runs): 101% and 116%
% Inhibition, Mean ([6]; ERK8): 15%
% Inhibition, Run 1 / Run 2 ([6]; ERK8): 15%
mean % activity ([6]; ERK8): 85%
% activity ([6]; ERK8, duplicate runs): 86% and 85%

[Cu+2].[Cu+2].[Cu+2].c1ccc(-c2csc(NCCN(CCNc3nc(-c4ccccn4)cs3)CCNc3nc(-c4ccccn4)cs3)n2)nc1.c1ccc(-c2csc(NCCN(CCNc3nc(-c4ccccn4)cs3)CCNc3nc(-c4ccccn4)cs3)n2)nc1 [[L2Cu3]6+]
% Inhibition Run 1 [1]: 20%
% Inhibition Run 2 [1]: 18.1%
% Inhibition, Mean [1]: 19%
mean % activity [1]: 81%
% activity ([1]; Run 1): 80%
% activity ([1]; Run 2): 81.9%
% Inhibition Run 1 ([2]; EPH-A2): 3.5%
% Inhibition Run 2 ([2]; EPH-A2): 9.8%
% Inhibition, Mean ([2]; EPH-A2): 6.65%
mean % activity ([2]; EPH-A2): 93%
% activity ([2]; EPH-A2, Run 1): 96.5%
% activity ([2]; EPH-A2, Run 2): 90.2%
% Inhibition Run 1 ([3]; ZAP70): 94%
% Inhibition Run 2 ([3]; ZAP70): 89.2%
% Inhibition, Mean ([3]; ZAP70): 92%
mean % activity ([3]; ZAP70): 8%
% activity ([3]; ZAP70, Run 1): 6%
% activity ([3]; ZAP70, Run 2): 10.8%
% Activity inhibition Mean ([3]; ZAP70): 91.6%
% Activity inhibition Run 1 ([3]; ZAP70): 94%
% Activity inhibition Run 2 ([3]; ZAP70): 89.2%
% Activity remaining Run 1 ([3]; ZAP70): 6.00%
% Activity remaining Run 2 ([3]; ZAP70): 10.80%
% Activation, Mean value ([4]; CDK9-Cyclin T1): 18%
% Inhibition Run 1 ([4]; CDK9-Cyclin T1): -1.8%
% Inhibition Run 2 ([4]; CDK9-Cyclin T1): -34.5%
% Inhibition, Mean ([4]; CDK9-Cyclin T1): -18%
mean % activity ([4]; CDK9-Cyclin T1): 118%
% activity ([4]; CDK9-Cyclin T1, Run 1): 101.8%
% activity ([4]; CDK9-Cyclin T1, Run 2): 134.5%
% Activity Run 1 ([4]; CDK9-Cyclin T1, 10 µM): 101.80%
% Activity Run 2 ([4]; CDK9-Cyclin T1, 10 µM): 134.50%
% Inhibition Run 1 ([5]; LKB1): 22.9%
% Inhibition Run 2 ([5]; LKB1): 29.1%
% Inhibition, Mean ([5]; LKB1): 26%
mean % activity ([5]; LKB1): 74%
% activity ([5]; LKB1, Run 1): 77.1%
% activity ([5]; LKB1, Run 2): 70.9%
% Activation, Mean value ([6]; ERK8): 27%
% Inhibition Run 1 ([6]; ERK8): -16.9%
% Inhibition Run 2 ([6]; ERK8): -37.3%
% Inhibition, Mean ([6]; ERK8): -27%
mean % activity ([6]; ERK8): 127%
% activity ([6]; ERK8, Run 1): 116.9%
% activity ([6]; ERK8, Run 2): 137.3%
% Activity Run 1 ([6]; ERK8, 10 µM): 116.90%
% Activity Run 2 ([6]; ERK8, 10 µM): 137.30%
